Reference: US8946289B2, “Manassatin compounds and methods of making and using the same” (Duke University, priority 2008, dated 2015)
Like-named read-outs stand apart in the source and are kept apart here.

Columns and labels:
[1] = tested on: interleukin-2 (IL-2); assay: Inhibition of interleukin-2 release in Jurkat T cells, ELISA; format: cell-based, human; conditions: Jurkat T cells stimulated with PMA and PHA, 18 h
Description: Human E6.1 Jurkat T cells were cultured in RPMI-1640 with 10% fetal bovine serum (FBS), 2 mM I-glutamine, and 1 mM Na-pyruvate. After serum starvation for 7 h, Jurkat cells were plated in 96 well culture plates at 1.25×10^5 cells/mL in RPMI-1640 (without phenol red) with 10% FBS. Cells were treated with phorbol 12-myristate 13-acetate (PMA, 1.25 ng/mL) and phytohemaglutinin (PHA, 0.25 μg/mL) to stimulate secretion of IL-2. Testing compound or DMSO vehicle was added to appropriate wells. […] Plates were then incubated for 18 h. Cell supernatants were collected (100 μL) and assayed for interleukin-2 (IL-2) by ELISA (Human IL-2 ELISA Kit, available from BD Biosciences, San Jose, Calif.). All test conditions were assayed in triplicate and verified with repeated experiments three times.

[2] = tested on: HIF-1; assay: ODD-Luc assay (luciferase reporter) for HIF-1 inhibitory activity; format: cell-based, mouse; conditions: read-out: HIF-1 inhibitory activity IC50; 4T1-ODD-Luc cells, 240 μM CoCl2, compounds 24 h
Description: The HIF-1 inhibitory of compound 1, 18, and the anti-diol diastereomer 22 were assessed with the ODD-Luc assay (Li, F.; Sonveaux, P.; Rabbani, Z. N.; Liu, S.; Yan, B.; Huang, Q.; Vujaskovic, Z.; Dewhirst, M. W.; Li, C. Y. Mol. Cell 2007, 26, 63-74, which is incorporated by reference). 4T1-ODD-Luc cells, stably transfected with the oxygen-dependent-degradation (ODD) domain of HIF-1α and a firefly luciferase reporter, were seeded in the 24-well plate at a density of 10^5 cells/well. After 16-hour incubation, cells were treated with 240 μM of Cobalt (II) Chloride (Sigma-Aldrich, St. Louis, Mo., USA) and serially diluted compounds for 24 h. To measure the luciferase signals, luciferin (150 mg/mL) was added and the plates were imaged using the Xenogen IVIS imaging system and associated Living Image software (Xenogen, Alameda, Calif.). Luciferase expression/activity was detected and quantified as relative light units (RLUs). Results are means±SD, n=3.
To determine HIF-1 inhibitory activity of 31 and 33, a luciferase-reporter based assay was used as a primary screen. […] Luciferase signals were detected and quantified as relative light units (RLUs).

[3] = tested on: HIF-1α protein; assay: Western blot of nuclear extracts, HIF-1α expression in 4T1 cells; format: cell-based, mouse
[4] = tested on: Athymic Nude mouse; assay: Non-tumored animal toxicity assay, single dose; format: in vivo; conditions: for Death Days / Survivors/Total at day 15: single dose
Description: All treatment was administered according to exact body weight. A single Athymic Nude mouse was given a single injection (IP) of 400 mg/kg; a second mouse received a dose of 200 mg/kg, and a third mouse received a single dose of 100 mg/kg. […] They were sacrificed if they lost more than 20% of their body weight or if there were other signs of significant toxicity. […] This process was repeated until a tolerated dose was found. This dose was then designated the maximum tolerated dose (MTD). The mice were allowed ad libitum feed and water. Injections were administered IP. Dose volumes were generally 0.1 mL/10 grams body weight but may be up to 0.2 mL/10 grams of body weight.

[5] = tested on: HIF-1α; assay: Western blot of nuclear extracts, HIF-1α expression in MDA-MB-231 cells; format: cell-based, human
[6] = tested on: 4T1 cells; conditions: 24 h, highest concentration examined 10 μM
Description: Like MTT (3-(4,5-d imethylthiazol-2-yl)-2,5-diphenyltetrazolium bromide, a tetrazole), MTS was reduced into a formazan product by living cells in the presence of an electron coupling reagent (phenazine methosulfate, PMS). The absorbance of the formazan was detected at 490 nm. […] Then cells were washed and incubated another three hours with cell medium containing MTS/PMS solution at 37° C. (21% O2, 5% CO2). Relative cell survival rate was determined on the O.D. values measured at 490 nm.

[7] = tested on: VEGF; assay: HIF-1 regulated VEGF secretion, ELISA; format: cell-based, mouse; conditions: 4T1 cells, hypoxia 0.5% O2, 24 h
Excerpt: Vascular endothelial growth factor (VEGF) is a gene that is highly involved in tumor progression as a pro-angiogenic factor.

[8] = tested on: HIF-1; conditions: T47D cells, 10 μM 1,10-phenanthroline, 16 h; cited from earlier work
[9] = tested on: 60 different human tumor cell lines; assay: NCI-60 DTP Human Tumor Cell Line Screen; format: cell-based
Description: The NCI-60 DTP Human Tumor Cell Line Screen utilized 60 different human tumor cell lines, representing leukemia, melanoma, and cancers of the lung, colon, brain, ovary, breast, prostate, and kidney. The screening was a two-stage process.
The human tumor cell lines of the cancer screening panel were grown in RPMI 1640 medium containing 5% fetal bovine serum and 2 mM L-glutamine. For a typical screening experiment, cells were inoculated into 96 well microtiter plates in 100 μL at plating densities ranging from 5,000 to 40,000 cells/well depending on the doubling time of individual cell lines.
After 24 h, two plates of each cell line were fixed in situ with TCA, to represent a measurement of the cell population for each cell line at the time of drug addition (Tz). […] At the time of drug addition, an aliquot of frozen concentrate was thawed and diluted to twice the desired final maximum test concentration with complete medium containing 50 μg/mL gentamicin. Additional four, 10-fold, or ½ log serial dilutions were made to provide a total of five drug concentrations plus control. Aliquots of 100 μL of these different drug dilutions were added to the appropriate microtiter wells already containing 100 μL of medium, resulting in the required final drug concentrations.
For adherent cells, the assay was terminated by the addition of cold TCA. Cells were fixed in situ by the gentle addition of 50 μL of cold 50% (w/v) TCA (final concentration, 10% TCA) and incubated for 60 minutes at 4° C. The supernatant was discarded, and the plates were washed five times with tap water and air dried. Sulforhodamine B (SRB) solution (100 μL) at 0.4% (w/v) in 1% acetic acid was added to each well, and plates were incubated for 10 minutes at room temperature. […] Bound stain was subsequently solubilized with 10 mM trizma base, and the absorbance was read on an automated plate reader at a wavelength of 515 nm. […] Using the seven absorbance measurements [time zero, (Tz), control growth, (C), and test growth in the presence of drug at the five concentration levels (Ti)], the percentage growth was calculated at each of the drug concentrations levels. Percentage growth inhibition was calculated as: [(Ti−Tz)/(C−Tz)]×100 for concentrations for which Ti>/=Tz [(Ti−Tz)/Tz]×100 for concentrations for which Ti<Tz.
Three dose response parameters were calculated for each experimental agent: GI50, TGI, and LC50. […] The drug concentration resulting in total growth inhibition (TGI) was calculated from Ti=Tz. […] Values were calculated for each of these three parameters if the level of activity was reached; however, if the effect was not reached or is exceeded, the value for that parameter was expressed as greater or less than the maximum or minimum concentration tested.

[10] = single dose 10 μM, leukemia, melanoma, and ovarian cancer

COc1ccc([C@H](O)[C@@H](C)Oc2ccc(C3OC(c4ccc(O[C@H](C)[C@@H](O)c5ccc(OC)c(OC)c5)c(OC)c4)[C@H](C)[C@H]3C)cc2OC)cc1OC (stereo partly drawn) [Compound 22]
release of interleukin-2 [1]: inhibited

COc1ccc([C@@H](O)[C@@H](C)Oc2ccc(C3OC(c4ccc(O[C@H](C)[C@H](O)c5ccc(OC)c(OC)c5)c(OC)c4)[C@H](C)[C@H]3C)cc2OC)cc1OC (stereo partly drawn) [Compound 33]
IC50 [2]: 47 nM

O=c1ccc2c(OCCCCc3ccccc3)c3ccoc3cc2o1 [Psora4, reference compound]
release of interleukin-2 [1]: inhibited

COc1ccc([C@@H](O)[C@@H](C)Oc2ccc(C3OC(c4ccc(O[C@H](C)[C@H](O)c5ccc(OC)c(OC)c5)c(OC)c4)[C@H](C)[C@H]3C)cc2OC)cc1OC (stereo partly drawn) [manassantin A]
HIF-1α expression induced by CoCl2 ([3]; 4T1 cells, 240 μM CoCl2 24 h, manassantin A 100 nM): inhibited
concentration significantly inhibiting hypoxia-induced nuclear expression of HIF-1α protein ([3]; 4T1 cells, hypoxia 0.5% O2, 24 h): higher than 10 nM
expression of HIF-1 ([3]; at the concentration 100 nM): completely inhibited
Death Days ([4]; Group 4, 100.00 mg/kg/dose IP): 0
Survivors/Total at day 15 ([4]; Group 4, 100.00 mg/kg/dose IP): 0/1
Death Days ([4]; Group 11, 12.50 mg/kg/dose IP): 0
Survivors/Total at day 15 ([4]; Group 11, 12.50 mg/kg/dose IP): 0/1
Death Days ([4]; Group 12, 1.56 mg/kg/dose IP): none
Survivors/Total at day 15 ([4]; Group 12, 1.56 mg/kg/dose IP): 1/1
Death Days ([4]; Group 13, 3.13 mg/kg/dose IP): none
Survivors/Total at day 15 ([4]; Group 13, 3.13 mg/kg/dose IP): 1/1
Death Days ([4]; Group 14, 6.25 mg/kg/dose IP): none
Survivors/Total at day 15 ([4]; Group 14, 6.25 mg/kg/dose IP): 1/1
toxicity (in words) ([4]; levels of 6.25, 3.13, and 1.56 mg/kg/dose IP): non-toxic
toxicity (in words) ([4]; levels of 12.50 and 100.00 mg/kg/dose IP): resulted in death
toxicity outcome at first dose levels ([4]; single IP injection of 400, 200 and 100 mg/kg, one mouse each): all 3 mice had to be sacrificed
HIF-1α nuclear expression induced by CoCl2 [5]: inhibited
Solubility (Group 4, 200.0 mg/mL in 100% DMSO): soluble, no
Solubility (Group 11, 25.0 mg/mL in 100% DMSO): soluble, no
Solubility (Group 12, 3.125 mg/mL in 100% DMSO): soluble, no
Solubility (Group 13, 3.125 mg/mL in 100% DMSO): soluble, no
Solubility (Group 14, 3.125 mg/mL in 100% DMSO): soluble, no
cell survival rate [6]: ~70%
concentration significantly inhibiting VEGF induced by hypoxia [7]: higher than 10 nM
effect on iron chelator-induced HIF-1 activation [8]: no significant effect
release of interleukin-2 [1]: inhibited
tumor cell growth, trial 1 ([9]; single dose 10 μM, 48 h, SRB): reduced the growth of all tumors tested
lethality, trial 1 [9, 10]: more than 50%
lethality, trial 2 [9, 10]: more than 50%
tumor cell growth, trial 2 ([9]; trial 2, 48 h, SRB): reduced the growth of all tumors tested
